The source of these data is patent US7932283B2, “Fungicide N-cyclopropyl-sulfonylamide derivatives” (Bayer Cropscience AG, priority 2006, dated 2011).

The nature of one data set: logP by HPLC on reversed-phase column (C 18), EEC Directive 79/B31 Annex V.A8, methods A and B. The conditions noted are these: HPLC reversed-phase C 18, method B: 40° C., 0.1% aqueous formic acid and acetonitrile, linear gradient 10% to 90% acetonitrile. The format is physicochemical. Here is the method:
Calibration was carried out using unbranched alkan-2-ones (having 3 to 16 carbon atoms) with known logP values (determination of the logP values by the retention times using linear interpolation between two successive alkanones).
What is called LogP is the decadic logarithm of the partition coefficient of the neutral form, usually between octanol and water. Read a high LogP as higher lipophilicity. Take `CCCOc1nn(C)cc1C(=O)N(C1CC1)S(=O)(=O)c1ccc(Oc2ccc(F)c(O)c2)cc1Br` [Compound 304]: the LogP is listed as 5.0.

The same data set, now with this note: reversed-phase HPLC column (C 18), HPLC reversed-phase C 18, method A: 43° C., 0.1% aqueous phosphoric acid, acetonitrile, linear gradient 10% to 90% acetonitrile.
By chromatographic logP is commonly meant a lipophilicity value derived from retention on a column. A low value points to lower lipophilicity. Take `Cn1cc(C(=O)N(C2CC2)S(=O)(=O)c2ccccc2O)c(C(F)(F)F)n1` [Compound 200]: the chromatographic logP worked out at 2.71.

As for `Cc1c(C(=O)N(C2CC2)S(=O)(=O)c2ccccc2O)cnn1-c1ccccc1` [Compound 201], the chromatographic logP was determined as 2.97.

In the case of `Cc1nn(C)c(F)c1C(=O)N(C1CC1)S(=O)(=O)c1ccccc1[N+](=O)[O-]` [Compound 202], the chromatographic logP came to 2.25.

For `Cc1nn(C)c(F)c1C(=O)N(C1CC1)S(=O)(=O)c1ccccc1-c1ccccc1` [Compound 206], the chromatographic logP was 2.96.

`Cn1nc(C(F)(F)F)c(C(=O)N(C2CC2)S(=O)(=O)c2ccccc2O)c1O` [Compound 208] registered a chromatographic logP of 3.27.

Consider `Cc1nn(C)c(F)c1C(=O)N(C1CC1)S(=O)(=O)c1ccccc1C#N` [Compound 216], for which the chromatographic logP turned out to be 2.07.

Regarding `Cc1nn(C)c(F)c1C(=O)N(C1CC1)S(=O)(=O)c1c(F)cccc1F` [Compound 217], the chromatographic logP was 2.25.

The same data set, now with this note: reversed-phase HPLC column (C 18), HPLC reversed-phase C 18, method B: 40° C., 0.1% aqueous formic acid and acetonitrile, linear gradient 10% to 90% acetonitrile.
Turning to `Cn1cc(C(=O)N(C2CC2)S(=O)(=O)c2cccc(O)c2O)c(C(F)F)n1` [Compound 221], the chromatographic logP is 2.9.

For the molecule `Cn1nc(C2CC2)c(C(=O)N(C2CC2)S(=O)(=O)c2ccc(O)c(O)c2O)c1O` [Compound 223], the chromatographic logP is 4.2.

`Cn1nc(C2CC2)c(C(=O)N(C2CC2)S(=O)(=O)c2ccc(O)c(O)c2O)c1F` [Compound 224]: the chromatographic logP is 3.9.

The molecule `Cn1nc(C2CC2)c(C(=O)N(C2CC2)S(=O)(=O)c2cccc(O)c2O)c1Cl` [Compound 225] gave a chromatographic logP of 4.7.

For `Cc1nn(C)c(C#N)c1C(=O)N(C1CC1)S(=O)(=O)c1ccc(O)c(O)c1O` [Compound 228], the chromatographic logP came out at 3.9.

With `Cc1nn(C)c(N(C)C)c1C(=O)N(C1CC1)S(=O)(=O)c1ccc(O)c(O)c1O` [Compound 229], the chromatographic logP was 3.6.

Regarding `COc1c(C(=O)N(C2CC2)S(=O)(=O)c2ccc(O)c(O)c2O)c(C)nn1C` [Compound 230], the chromatographic logP is 3.2.

As for `Cc1nn(C)c(Oc2ccc(O)cc2)c1C(=O)N(C1CC1)S(=O)(=O)c1ccccc1O` [Compound 261], the chromatographic logP came to 3.6.

`COc1nn(C)c(O)c1C(=O)N(C1CC1)S(=O)(=O)c1cccc(O)c1O` [Compound 278] displayed a chromatographic logP of 3.2.

Consider `COc1nn(C)c(O)c1C(=O)N(C1CC1)S(=O)(=O)c1ccc(Oc2ccccc2)cc1` [Compound 280], for which the chromatographic logP was 3.8.

Regarding `COc1nn(C)c(O)c1C(=O)N(C1CC1)S(=O)(=O)c1ccc(O)c(O)c1O` [Compound 282], the chromatographic logP came to 3.8.

`COc1nn(C)c(O)c1C(=O)N(C1CC1)S(=O)(=O)c1ccc(Oc2ccc(Br)cc2)cc1` [Compound 284] gave a chromatographic logP of 4.3.

Molecule `CCCOc1nn(C)cc1C(=O)N(C1CC1)S(=O)(=O)c1ccc(Oc2ccc(C)nc2)cc1Br` [Compound 285] returned a chromatographic logP of 2.7.

For the molecule `CCCOc1nn(C)cc1C(=O)N(C1CC1)S(=O)(=O)c1ccc(Oc2ccc(-n3cncn3)cc2)cc1Br` [Compound 286], the chromatographic logP amounted to 3.

Take `CCCOc1nn(C)cc1C(=O)N(C1CC1)S(=O)(=O)c1ccc(Oc2ccc3ccc(=O)oc3c2)cc1Br` [Compound 287]: the chromatographic logP was 3.4.

For the molecule `CCCOc1nn(C)cc1C(=O)N(C1CC1)S(=O)(=O)c1ccc(Oc2ccc(OC)c(OC)c2)cc1Br` [Compound 288], the chromatographic logP was found to be 3.6.

As for `CCCOc1nn(C)cc1C(=O)N(C1CC1)S(=O)(=O)c1ccc(Oc2ccc(OC)cc2)cc1Br` [Compound 289], the chromatographic logP is 4.

As for `CCCOc1nn(C)cc1C(=O)N(C1CC1)S(=O)(=O)c1ccc(Oc2ccccc2)cc1Br` [Compound 290], the chromatographic logP amounted to 4.1.

`CCCOc1nn(C)cc1C(=O)N(C1CC1)S(=O)(=O)c1ccc(Oc2ccccc2O)cc1Br` [Compound 291] registered a chromatographic logP of 4.2.

Molecule `CCCOc1nn(C)cc1C(=O)N(C1CC1)S(=O)(=O)c1ccc(Oc2cccc(N(C)C)c2)cc1Br` [Compound 292] had a chromatographic logP of 4.4.

For the molecule `CCCOc1nn(C)cc1C(=O)N(C1CC1)S(=O)(=O)c1ccc(Oc2ccc(C)cc2)cc1Br` [Compound 293], the chromatographic logP amounted to 4.5.

`CCCOc1nn(C)cc1C(=O)N(C1CC1)S(=O)(=O)c1ccc(Oc2ccc(F)c(O)c2)cc1Br` [Compound 294] returned a chromatographic logP of 4.5.

Molecule `CCCOc1nn(C)cc1C(=O)N(C1CC1)S(=O)(=O)c1ccc(Oc2ccc(O)cc2)cc1Br` [Compound 295] came in with a chromatographic logP of 4.5.

Take `CCCOc1nn(C)cc1C(=O)N(C1CC1)S(=O)(=O)c1ccc(Oc2cccc(O)c2)cc1Br` [Compound 296]: the chromatographic logP was 4.5.

For `CCCOc1nn(C)cc1C(=O)N(C1CC1)S(=O)(=O)c1ccc(Oc2cccc(C(F)(F)F)c2)cc1Br` [Compound 297], the chromatographic logP worked out at 4.5.

The molecule `CCCOc1nn(C)cc1C(=O)N(C1CC1)S(=O)(=O)c1ccc(Oc2ccc(C(F)(F)F)cc2)cc1Br` [Compound 298] registered a chromatographic logP of 4.6.

In turn, `CCCOc1nn(C)cc1C(=O)N(C1CC1)S(=O)(=O)c1ccc(Oc2cccc(Br)c2)cc1Br` [Compound 299] returned a chromatographic logP of 4.6.

Molecule `CCCOc1nn(C)cc1C(=O)N(C1CC1)S(=O)(=O)c1ccc(Oc2ccc(Br)cc2)cc1Br` [Compound 300] registered a chromatographic logP of 4.6.

`CCCOc1nn(C)cc1C(=O)N(C1CC1)S(=O)(=O)c1ccc(Oc2ccc(O)cc2Cl)cc1Br` [Compound 301] registered a chromatographic logP of 4.9.

As for `CCCOc1nn(C)cc1C(=O)N(C1CC1)S(=O)(=O)c1ccc(Oc2ccc(O)c(C(F)(F)F)c2)cc1Br` [Compound 302], the chromatographic logP was 4.9.

Consider `CCCOc1nn(C)cc1C(=O)N(C1CC1)S(=O)(=O)c1ccc(Oc2ccc(Cl)c(Cl)c2)cc1Br` [Compound 303], for which the chromatographic logP was determined as 4.9.

Molecule `CCCOc1nn(C)cc1C(=O)N(C1CC1)S(=O)(=O)c1ccc(Oc2cc(O)cc(O)c2)cc1Br` [Compound 305] came in with a chromatographic logP of 5.1.

`CCCCc1ccc(S(=O)(=O)N(C(=O)c2c(C(F)(F)F)nn(C)c2F)C2CC2)cc1` [Compound 359] returned a chromatographic logP of 4.3.

On to `Cn1nc(C(F)(F)F)c(C(=O)N(C2CC2)S(=O)(=O)c2c(O)cccc2O)c1F` [Compound 360], for which the chromatographic logP was found to be 3.1.

For the molecule `Cn1nc(C(F)(F)F)c(C(=O)N(C2CC2)S(=O)(=O)c2cc(O)c(O)cc2O)c1F` [Compound 361], the chromatographic logP is 4.

With `Cn1nc(C(F)(F)F)c(C(=O)N(C2CC2)S(=O)(=O)c2ccc(F)cc2O)c1F` [Compound 362], the chromatographic logP came out at 3.1.

In turn, `Cn1nc(C(F)(F)F)c(C(=O)N(C2CC2)S(=O)(=O)c2c(O)cc(O)cc2O)c1F` [Compound 363] had a chromatographic logP of 3.7.

On to `Cn1nc(C(F)(F)F)c(C(=O)N(C2CC2)S(=O)(=O)c2ccccc2C(F)(F)F)c1F` [Compound 364], for which the chromatographic logP was 3.1.

Consider `Cn1nc(C(F)(F)F)c(C(=O)N(C2CC2)S(=O)(=O)c2ccccc2OC(F)(F)F)c1F` [Compound 365], for which the chromatographic logP came to 3.2. This chromatographic logP and that of the molecule before are within 0.2 log units of each other.

Molecule `Cc1cc(O)cc(O)c1S(=O)(=O)N(C(=O)c1c(C(F)(F)F)nn(C)c1F)C1CC1` [Compound 367] had a chromatographic logP of 2.6.
